Data set [1] relates to blood pressure. In words: Radio-telemetry blood pressure in SHR, up to 30 days. The class given is in vivo.
Data set [2] in a line: Pharmacokinetics after single oral dose in rats (plasma and brain). The class given is in vivo, rats (Crl: CD BR Vaf+). The settings on record: for half-life: Crl: CD BR Vaf+, rat, plasma, read-out: elimination half-life (converted). The protocol: Male rats (Crl: CD BR Vaf+) weighing 180-220 g were fasted overnight before dosing and until 4 hr after dosing. Doses were formulated in water containing 2% 1-hydroxypropyl methylcellulose (50 centipoises viscosity), 1% benzyl alcohol, and 0.6% Tween 80 (all obtained from Sigma Chemical Company). Concentration of drug in the dose solutions was 5, 15, and 50 mg/ml for the 10, 30, and 100 mg/kg doses, respectively, and was verified by liquid chromatography (LC). The 5 mg/ml dose was a clear solution and the higher concentrations were a translucent suspension. Dose volumes were 2.0 ml/kg. At various times after dosing, samples of blood were obtained by cardiac puncture with heparinized syringes, and plasma was prepared by centrifugation. Brains of rats were surgically excised, and all samples were frozen at −20° C. until analysis.
Aliquots of plasma (0.05 or 0.5 ml) were mixed with internal standard (50 μl of methanol containing 5 μg/ml a monofluoro analog of nepicastat, and 5 mg/ml dithiothreitol). Samples were mixed with 200 mM sodium phosphate buffer, pH 7.0, (0.5 ml) and extracted with 3 ml of ethyl acetate/hexane (1/1, v/v). The organic phase containing analytes was back extracted with 250 μl of 250 mM acetic acid and 100 μl aliquots of the aqueous phase were assayed by LC. The LC system used a Keystone Hypersil BDS 15 cm C8 column at ambient temperature. Mobile phase A was 12.5 mM potassium phosphate, pH 3.0, with 5 mM dodecanesulfonic acid and mobile phase B was acetonitrile. Solvent composition was 40% B and was pumped at a flow rate of 1 ml/min. Detection was by UV absorption at 261 nm. Concentrations of analytes were determined from a standard curve generated from the analysis of plasma from untreated rats fortified with known concentrations of analyte. Plasma concentration data are expressed as μg (free base) per ml.
Brains were rinsed briefly with saline, blotted on a paper towel, then weighed (1.5-2.0 g). Internal standard was added (50 μl of methanol containing 20 μg/ml a monofluoro analog of nepicastat), and brains were homogenized in 5 ml of 200 mM sodium phosphate, pH 7.0, containing 0.5 mg/ml dithiothreitol. Aliquots of homogenate (2 ml) were extracted with 10 ml of ethyl acetate/hexane (1/1, v/v). The organic phase was gently back extracted with 150 μl of 250 mM acetic acid.
Following addition of 100 μl of methanol to the aqueous phase (to disperse any emulsion), 100 μl aliquots were assayed by LC as described for plasma. Level in brain are expressed as μg (free base) per g of brain tissue.
Pharmacokinetic parameters were calculated from mean plasma concentrations. Plasma half-life (T1/2) was calculated as 0.693/β, where β is the elimination rate constant determined by linear regression of the log plasma concentration vs. time data within the terminal linear portion of the data. Areas under the plasma concentration vs. time curve (AUC) from zero to the time of the last quantifiable plasma concentrations were calculated by the trapezoidal rule. AUC from zero to infinity (AUCtotal) was calculated as:
AUCtotal=AUC(0−Clast)+Clastβ where Clast is the last quantifiable plasma concentration.

The subject of data set [3] is body core temperature. In words: Body core temperature during 10 day chronic dosing. To be noted: b.i.d. oral: nepicastat 5, 15, 50 mg/kg; SKF-102698 50 mg/kg; clonidine 20 ug/kg; d-amphetamine 2 mg/kg; days 1, 5, 10. As to the method: The effects of chronic dosing of nepicastat were examined. Between three and thirteen days prior to the first dosing day the rats were placed inside the startle apparatus and after a five minute acclimation period they were presented with a 118 dB noise burst on average once a minute (a variable inter-trial interval ranging between 30 and 90 seconds will be used) for 20 minutes. The startle responses were measured and a mean for the last twenty startle response was calculated for each rat.
Rat body core temperatures were obtained by inserting the rectal probe 2 cm into the colon of each rat. Each rat's body core temperature was measured three times and the average of the three reading was calculated. Body core temperature readings were obtained immediately prior to the ten day chronic dosing schedule (to obtain a baseline), and three and half hour after the morning daily dose of nepicastat, and SKF-102698, and 15 minutes prior to the daily administration of clonidine and d-amphetamine, on dosing days one, five and ten. […] Both clonidine (an alpha2 agonist), and d-amphetamine (a dopamine releaser) were used as the positive controls for this assay.
An overall one-way ANOVA with a main effect for treatment was performed at each time on the change from baseline for each animal. Subsequent t-tests were performed for each comparison of interest.

Read-outs that look alike come from different tables or passages of the source.

From patent US20090054403A1, “Treatment of Post-Traumatic Stress Disorder” (priority 2007, published 2009) come the findings set out here.

For `Cl.NCc1c[nH]c(=S)n1[C@H]1CCc2c(F)cc(F)cc2C1` [nepicastat, (S)-5-Aminomethyl-1-(5,7-difluoro-1,2,3,4-tetrahydronaphth-2-yl)-2,3-dihydro-2-thioxo-1H-imidazole hydrochloride], the “peak decrease in blood pressure” value in data set [1] (30 mg/kg/d) is on record as −20 mmHg; in data set [1] (100 mg/kg/d), −42 mmHg. In addition, the “effect on blood pressure” value was “no significant effects” in data set [1] (3 and 10 mg/kg/d); “significantly lowered blood pressure” in data set [1] (30 and 100 mg/kg/d for 30 days). The “effect on blood pressure of nepicastat 30 mg/kg combined with enalapril 1 mg/kg p.o.” value in data set [1] (30 days of dosing) is recorded as “potentiation of the antihypertensive effects”. For the same compound, the “left ventricular mass, nepicastat 30 mg/kg combined with enalapril 1 mg/kg p.o.” value in data set [1] (30 days of dosing) is “significant reduction in left ventricular mass”. Also, the motor activity entry in data set [1] (30 days of dosing) was “unaffected”. For the same compound, the “concentrations in brain relative to plasma” value in data set [2] (10 mg/kg oral, male rats, from 2 hr following dosing onward) is on record as “exceeded those in plasma”. Besides, the “plasma AUCtotal in female rats relative to male rats (higher by)” value in data set [2] (30 mg/kg oral) worked out at 77%. For the same compound, in data set [2] (10-100 mg/kg oral, male rats), the “relationship between AUCtotal and dose” value was “linear”. The half-life in data set [2] (10 mg/kg oral, male rats) is 1.7 h; in data set [2] (30 mg/kg oral, male rats), 2.09 h; in data set [2] (100 mg/kg oral, male rats) it was 3.88 h.

As for `Fc1cc(F)cc(Cn2cc[nH]c2=S)c1` [SKF 102698, reference compound], in data set [3], the body core temperature result is listed as “Lack of Effect”.

By half-life is commonly meant the time in which the quantity being followed falls by half.
